Measurements from ChEMBL document CHEMBL5335824, “Research progress of LSD1-based dual-target agents for cancer therapy” (Bioorg Med Chem, 2024).
pIC50: −log10 of the molar value.

Key:
[1] = tested on: BXPC-3; assay: Antiproliferative activity against human BXPC-3 cells assessed as reduction in cell viability measured for 72 hrs by CCK-8 assay; assay type: functional, cell-based; details: BXPC-3, 72 h
[2] = tested on: MIA PaCa-2; assay: Antiproliferative activity against human MIA PaCa-2 cells assessed as reduction in cell viability incubated for 24 hrs by CCK-8 assay; assay type: functional, cell-based; details: MIA PaCa-2, 24 h
[3] = target: Spermine oxidase (Homo sapiens, UniProt Q9NWM0); assay: Inhibition of SMOX (unknown origin) using spermine as substrate preincubated for 1 hr followed by substrate addition and measured after 20 mins by luminometer analysis
Chain of Spermine oxidase (Q9NWM0 whole entry): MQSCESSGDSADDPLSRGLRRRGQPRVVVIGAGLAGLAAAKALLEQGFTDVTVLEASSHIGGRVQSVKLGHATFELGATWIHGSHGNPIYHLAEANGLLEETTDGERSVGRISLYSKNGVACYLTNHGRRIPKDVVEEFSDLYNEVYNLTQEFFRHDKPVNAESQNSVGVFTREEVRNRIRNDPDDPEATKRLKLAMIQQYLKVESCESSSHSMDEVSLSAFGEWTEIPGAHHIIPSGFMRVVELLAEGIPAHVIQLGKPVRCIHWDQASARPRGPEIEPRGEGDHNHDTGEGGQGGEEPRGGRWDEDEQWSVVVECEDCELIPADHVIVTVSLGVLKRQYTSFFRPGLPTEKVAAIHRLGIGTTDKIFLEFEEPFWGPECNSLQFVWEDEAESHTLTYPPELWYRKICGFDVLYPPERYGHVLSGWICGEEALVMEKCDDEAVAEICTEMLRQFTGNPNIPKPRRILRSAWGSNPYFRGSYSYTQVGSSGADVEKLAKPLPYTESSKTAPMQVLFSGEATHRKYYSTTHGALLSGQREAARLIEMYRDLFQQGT

[4] = target: Lysine-specific histone demethylase 1A (Homo sapiens) (UniProt O60341); assay: Inhibition of LSD1 (unknown origin) at 10 uM relative to control
[5] = target: T1, Histone-lysine N-methyltransferase EHMT2 (Homo sapiens, UniProt Q96KQ7); assay: Inhibition of human G9a expressed in HEK293 cells; assay type: cell-based
T1 sequence (Q96KQ7 whole entry): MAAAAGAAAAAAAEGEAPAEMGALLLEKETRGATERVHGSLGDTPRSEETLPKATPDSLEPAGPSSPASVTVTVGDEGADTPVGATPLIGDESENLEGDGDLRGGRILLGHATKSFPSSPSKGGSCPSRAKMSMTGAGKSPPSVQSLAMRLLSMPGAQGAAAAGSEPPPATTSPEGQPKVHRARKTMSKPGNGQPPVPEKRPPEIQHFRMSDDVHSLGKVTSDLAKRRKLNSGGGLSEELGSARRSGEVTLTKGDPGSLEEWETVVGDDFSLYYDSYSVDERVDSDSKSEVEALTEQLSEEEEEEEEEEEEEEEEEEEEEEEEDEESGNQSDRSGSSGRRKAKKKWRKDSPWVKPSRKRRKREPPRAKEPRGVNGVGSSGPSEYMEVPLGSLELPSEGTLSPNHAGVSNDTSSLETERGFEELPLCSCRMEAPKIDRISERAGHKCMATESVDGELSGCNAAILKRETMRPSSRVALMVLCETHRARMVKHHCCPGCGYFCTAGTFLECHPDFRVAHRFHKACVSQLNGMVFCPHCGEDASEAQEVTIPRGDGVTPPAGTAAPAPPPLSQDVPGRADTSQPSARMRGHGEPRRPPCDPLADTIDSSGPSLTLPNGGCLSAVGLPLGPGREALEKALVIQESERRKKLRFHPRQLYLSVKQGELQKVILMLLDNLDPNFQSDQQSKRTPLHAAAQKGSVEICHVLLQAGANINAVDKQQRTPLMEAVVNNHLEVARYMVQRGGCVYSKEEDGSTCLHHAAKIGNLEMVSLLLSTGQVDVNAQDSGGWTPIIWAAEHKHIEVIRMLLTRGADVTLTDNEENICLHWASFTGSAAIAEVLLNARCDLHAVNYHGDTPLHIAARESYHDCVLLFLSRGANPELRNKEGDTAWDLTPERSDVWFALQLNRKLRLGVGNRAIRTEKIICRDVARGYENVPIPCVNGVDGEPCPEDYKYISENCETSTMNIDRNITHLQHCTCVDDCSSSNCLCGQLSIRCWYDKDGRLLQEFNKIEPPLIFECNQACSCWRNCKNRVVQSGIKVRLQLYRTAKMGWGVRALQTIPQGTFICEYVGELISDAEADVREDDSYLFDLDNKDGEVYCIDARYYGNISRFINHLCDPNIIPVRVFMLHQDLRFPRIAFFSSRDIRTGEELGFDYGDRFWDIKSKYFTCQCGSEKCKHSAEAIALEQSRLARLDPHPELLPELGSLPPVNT

[6] = tested on: NCI-H1975; assay: Antiproliferative activity against human NCI-H1975 cells assessed as reduction in cell viability incubated for 48 hrs by MTT assay; details: NCI-H1975, 48 h
[7] = Inhibition of DCN1 (unknown origin) by TR-FRET analysis; parameters: species or system Homo sapiens
[8] = tested on: MGC-803; assay: cells; details: Homo sapiens, MGC-803, 72 h
[9] = tested on: SGC-7901; assay: cells; details: Homo sapiens, SGC-7901, 72 h
[10] = tested on: BGC-823; assay: cells; details: Homo sapiens, BGC-823, 72 h
[11] = tested on: THP-1; assay: Antiproliferative activity against human THP-1 cells incubated for 24 hrs by trypan blue reagent based analysis; assay type: functional, cell-based; details: THP-1, 24 h
[12] = tested on: MOLM-13; assay: Antiproliferative activity against human MOLM-13 assessed as reduction in cell growth incubated for 48 hrs by MTT assay; assay type: functional, cell-based; details: MOLM-13, 48 h
[13] = tested on: K562; assay: Antiproliferative activity against human K562 assessed as reduction in cell growth incubated for 48 hrs by MTT assay; assay type: functional, cell-based; details: K562, 48 h
[14] = tested on: Jurkat; assay: Antiproliferative activity against human Jurkat cells assessed as reduction in cell viability incubated for 48 hrs by cell titer-glo assay; assay type: functional, cell-based
[15] = tested on: PC-3; assay: Growth inhibition of human PC-3 cells assessed as reduction in cell viability by SRB assay; assay type: functional; details: time 48 hrs
[16] = tested on: DU-145; assay: Antiproliferative activity against human DU-145 cells assessed as cell growth inhibition; assay type: functional, cell-based
[17] = tested on: MCF7; assay: Antiproliferative activity against human MCF7 cells assessed as reduction in cell viability by MTT assay; assay type: functional, cell-based

Nc1n[nH]c(NCc2c(Cl)cccc2Oc2ccc(-c3ccccc3)cc2)n1
pIC50 [1]: < 4.00
pIC50 [2]: 4.21
pIC50 [3]: 4.59
inhibition [4]: 52.1%

COc1cc2nc(NCCCN(C)C)nc(NC3CCN(Cc4ccccc4)CC3)c2cc1OC
pIC50 [5]: 6.11

Cc1cc(Sc2nnnn2CCN(C)C)n2nc(SCc3ccc(Cl)cc3)nc2n1
pIC50 [7]: 7.96
pIC50 [8]: 6.28
pIC50 [9]: 6.07
pIC50 [10]: 6.00

O=C(NO)c1ccc(CN2CCC(CN[C@@H]3C[C@H]3c3ccccc3)CC2)cc1
pIC50 [11]: 4.79
pIC50 [12]: 5.89
pIC50 [13]: 4.78
pIC50 [14]: 4.81

CN(C)CCCNc1nc(NC2CCN(Cc3ccccc3)CC2)c2ccccc2n1
pIC50 [5]: 4.38

C#CCN(C)Cc1cccc(NC(=O)CCCCCCC(=O)NO)c1
GI50 [15]: 330 nM
pIC50 [16]: 6.38

CC/C(=C(/c1ccc(OCCN(C)C)cc1)c1ccc(OC(=O)N(C)CCN(C)C2CC2c2ccccc2)cc1)c1ccccc1 (stereo not drawn)
pIC50 [17]: 4.54
